Reference: patent publication US12492337B2, “Fluorescent probe, preparation method therefor and use thereof” (FLUORESCENCE DIAGNOSIS (SHANGHAI) BIOTECH COMPANY, priority 2017, dated 2025)

Assays:
HaloTag protein tag = experiment: Probe mixed with HaloTag protein tag, fluorescence spectrophotometer (Example 86); format: biochemical; conditions: 5 μM probe, 10 μM protein tag, 37° C., 1 hour; for Fluorescence enhancement: fluorescence activation multiple after binding protein tag; for Emission/nm: fluorescence emission wavelength
Method: (§1) A probe was mixed with a corresponding HaloTag protein tag to obtain a mixed sample. The final concentration of the probe in the mixed sample was 5 μM and the final concentration of the protein tag was 10 μM. The mixed sample was incubated at 37° C. for 1 hour, and the sample was detected using a fluorescence spectrophotometer.

[1] = Viscosity responsiveness: fluorescence intensity in glycerol versus methanol; format: physicochemical; conditions: fluorescence intensity in glycerol to that in methanol
Method: The above-mentioned viscosity-responsive fluorescent dye means that the fluorescence intensity of the dye responds to the viscosity of the solution. As the viscosity of the solution increases, the fluorescence intensity increases. Optionally, the viscosity-responsive fluorescent dye is an organic dye molecule which, under the same concentration and excitation wavelength, at 25° C. has a ratio • of the maximum fluorescence emission intensity of the dye in glycerol to the fluorescence intensity in methanol of greater than 2, optionally greater than 5, optionally greater than 10. The concentration of the viscosity-responsive dye ranges from 1×10^−7 M to 1×10^−5 M.

[2] = Quantum yield of free probe not reacted with protein tag; format: physicochemical
Method: as §1

The quantum yield after binding to Halo-tag (HaloTag protein tag) | Emission/nm (HaloTag protein tag) | ratio [1] | The quantum yield of the free probe [2] | SMILES | Fluorescence enhancement (HaloTag protein tag)
0.57 | 645 nm | 480 | <0.001 | CN(CCOC(=O)NCCOCCOCCCCCCCl)c1cc2c(s1)-c1sc(/C=C(\C#N)C(=O)OC(C)(C)C)cc1C2(C)C [Probe 48] | 428
0.51 | 568 nm | 301 | 0.0017 | CN(CCOC(=O)NCCOCCOCCCCCCCl)c1ccc2cc(/C=C(\C#N)C(=O)O)sc2c1 [Probe 18] | 444
0.48 | 580 nm | 276 | <0.001 | CN(C)c1ccc2cc(/C=C(\C#N)C(=O)NCCCCCCCl)sc2c1 [Probe 67] | 576
0.63 | 521 nm | 1459 | <0.001 | CC(C)(C)OC(=O)/C(C#N)=C/c1ccc2c(c1)SCCN2CCOC(=O)NCCOCCOCCCCCCCl [Probe 44] | 1586
0.47 | 620 nm | 1781 | <0.001 | CN(CCOC(=O)NCCOCCOCCCCCCCl)c1ccc(-c2ccc(/C=C(\C#N)C(=O)OC(C)(C)C)s2)cc1 [Probe 33] | 957
0.41 | 555 nm | 405 | 0.0012 | CN(CCOC(=O)NCCOCCOCCCCCCCl)c1cc2sc(/C=C(\C#N)C(=O)O)cc2s1 [Probe 12] | 750
0.46 | 609 nm | 997 | <0.001 | CN(CCOC(=O)NCCOCCOCCCCCCCl)c1ccc2c(c1)sc1cc(/C=C(\C#N)C(=O)OC(C)(C)C)sc12 [Probe 32] | 638
0.39 | 702 nm | 178 | 0.0013 | CN(CCOC(=O)NCCOCCOCCCCCCCl)c1ccc(-c2ccc(/C=C(\C#N)c3nc4ccccc4o3)s2)s1 [Probe 42] | 375
0.51 | 620 nm | 1621 | <0.001 | CN(CCOC(=O)NCCOCCOCCCCCCCl)c1ccc2nc(/C=C(\C#N)C(=O)O)sc2c1 [Probe 25] | 670
0.52 | 622 nm | 1681 | <0.001 | CN(CCOC(=O)NCCOCCOCCCCCCCl)c1ccc2nc(/C=C(\C#N)C(=O)OC(C)(C)C)sc2c1 [Probe 24] | 590
0.53 | 570 nm | 320 | <0.001 | CC(C)(C)OC(=O)/C(C#N)=C/c1cc2ccc(N(CCO)CCOC(=O)NCCOCCOCCCCCCCl)cc2s1 [Probe 15] | 379
0.66 | 570 nm | 391 | <0.001 | CN(CCO)c1ccc2cc(/C=C(\C#N)C(=O)NCCOCCOCCCCCCCl)sc2c1 [Probe 65] | 798
0.52 | 480 nm | 560 | <0.001 | CN(CCOC(=O)NCCOCCOCCCCCCCl)c1ccc(/C=C(\C#N)C(=O)OC(C)(C)C)cc1 [Probe 1] | 500
0.61 | 620 nm | 321 | 0.0028 | CN(C)c1ccc2nc(/C=C(\C#N)C(=O)NCCOCCOCCCCCCCl)sc2c1 [Probe 71] | 475
0.60 | 585 nm | 632 | <0.001 | CN(C)c1ccc2cc(/C=C(\C#N)C(=O)OCCOCCOCCCCCCCl)sc2c1 [Probe 64] | 519
0.47 | 640 nm | 268 | 0.001 | CN(C)c1ccc2nc(/C=C(\C#N)C(=O)OCCOCCOCCCCCCCl)sc2c1 [Probe 72] | 486
0.48 | 510 nm | 410 | 0.001 | CN(CCOC(=O)NCCOCCOCCCCCCCl)c1ccc(/C=C(\C#N)c2nc3ccccc3o2)cc1 [Probe 2] | 410
0.44 | 700 nm | 101 | 0.0015 | COCCNC(=O)/C(C#N)=C/c1ccc(-c2ccc(N(C)CCOC(=O)NCCOCCOCCCCCCCl)s2)s1 [Probe 41] | 418
0.48 | 625 nm | 359 | <0.001 | CN(CCOC(=O)NCCOCCOCCCCCCCl)c1ccc2c(c1)C(C)(C)c1cc(/C=C(/C#N)C(=O)OC(C)(C)C)ccc1-2 [Probe 51] | 392
0.45 | 515 nm | 399 | 0.0011 | CN(CCOC(=O)NCCOCCOCCCCCCCl)c1ccc(/C=C(\C#N)c2nc3ccccc3s2)cc1 [Probe 3] | 512
0.41 | 660 nm | 1135 | <0.001 | CN(CCOC(=O)NCCOCCOCCCCCCCl)c1cc2sc3cc(/C=C(\C#N)c4nc5ccccc5s4)sc3c2s1 [Probe 31] | 875
0.60 | 620 nm | 1125 | <0.001 | CN(CCOC(=O)NCCOCCOCCCCCCCl)c1cc2sc3cc(/C=C(\C#N)c4nc5ccccc5o4)sc3c2s1 [Probe 30] | 535
0.58 | 480 nm | 419 | <0.001 | CN(CCO)c1ccc(/C=C(\C#N)C(=O)NCCOCCOCCCCCCCl)cc1 [Probe 58] | 519
0.56 | 575 nm | 402 | <0.001 | CC1=N/C(=C\c2cc3ccc(N(C)CCOC(=O)NCCOCCOCCCCCCCl)cc3s2)C(=O)N1C [Probe 17] | 498
0.50 | 580 nm | 381 | <0.001 | CN(C)c1ccc2cc(/C=C(\C#N)C(=O)NCCOCCCl)sc2c1 [Probe 68] | 681
0.47 | 680 nm | 522 | <0.001 | CN(C)c1ccc(-c2ccc(/C=C(\C#N)C(=S)NCCOCCOCCCCCCCl)s2)s1 [Probe 84] | 431
0.58 | 520 nm | 682 | <0.001 | CC1=CC(C)(C)N(CCOC(=O)NCCOCCOCCCCCCCl)c2ccc(/C=C(\C#N)C(=O)OC(C)(C)C)cc21 [Probe 46] | 563
0.39 | 660 nm | 211 | <0.001 | CN1C(=O)/C(=C\c2cc3c(s2)-c2sc(N(C)CCOC(=O)NCCOCCOCCCCCCCl)cc2C3(C)C)SC1=S [Probe 55] | 382

SMILES | The quantum yield after binding to Halo-tag (HaloTag protein tag) | Emission/nm (HaloTag protein tag) | ratio [1] | The quantum yield of the free probe [2] | Fluorescence enhancement (HaloTag protein tag)
CN(CCOC(=O)NCCOCCOCCCCCCCl)c1cc2c(s1)-c1sc(C=C(C#N)C#N)cc1[Si]2(C)C [Probe 37] | 0.56 | 655 nm | 1135 | 0.0012 | 469
CN1C(=O)/C(=C\c2cc3c(s2)-c2sc(N(C)CCOC(=O)NCCOCCOCCCCCCCl)cc2[Si]3(C)C)SC1=S [Probe 56] | 0.47 | 725 nm | 436 | <0.001 | 989
CN(C)c1cc2c(s1)-c1sc(/C=C(\C#N)C(=S)NCCOCCOCCCCCCCl)cc1[Si]2(C)C [Probe 83] | 0.53 | 680 nm | 652 | <0.001 | 456
CC(C)(C)OC(=O)/C(C#N)=C/c1ccc(N(CCOC(=O)NCCCS(=O)(=O)[O-])CCOC(=O)NCCOCCOCCCCCCCl)cc1.[Na+] [Probe5] | 0.46 | 480 nm | 790 | <0.001 | 1174
